According to US20140038959A1, “METHODS OF TREATING TUMORS” (Genentech, Inc., priority 2011, published 2014):
Read-outs that look alike come from different tables or passages of the source. Numbered stars: 1 amine (or outer) side, 2 acyl side, 3 side chain; on linkers, the order of the positions; unused ones are H or OH. Bridge positions count the residues as written; N and C are the ends. Square brackets hold non-standard residues; d marks the D form. Peptide text beside a SMILES is read from it. I, II: the chains in the order shown. Hexamethylenediamine = C(CCCN[*:2])CCN[*:1]; Dip = N[C@H](C(=O)O)C(c1ccccc1)c1ccccc1; Chg = N[C@H](C(=O)O)C1CCCCC1; NMeA = CN[C@@H](C)C(=O)O

Key:
[1] = system: SKMES-1, Calu-6, Cal-120 cells; assay: CellTiter-Glo viability after PAK1 and PAK2 siRNA plus MEK and PI3K inhibitors; assay type: cell-based, human; details: with PAK1 and PAK2 siRNA, 3 days
Experimental: FIG. 11—Combinatorial effect of PAK1, PAK2, MEK and PI3K inhibition on tumor cell viability. CellTiter-Glo® (CTG) assays of cellular viability were performed following PAK1 and PAK2 siRNA transfection and compound treatment for 3 days, as indicated.
Taken together, these studies provide strong preclinical support that breast and NSCLC may provide several opportunities for rational combination therapies with PAK1 inhibitors. In one embodiment of the present invention there is provided a method of treating tumors comprising contacting the tumor with a PAK 1 inhibitor and a second anti-hyperproliferative compound.

EBC1-shPAK1 cells = assay: pharmarray viability screen, 200 compound library, with or without PAK1 knockdown (CellTiter-Glo); assay type: cell-based, human; details: for EC50: Homo sapiens
EBC-1 cells [2] = assay: PF-3758309 with BV6, in vitro combination efficacy, 4-day CellTiterGlo viability assay (Calcusyn); assay type: cell-based, human; details: Chou and Talalay method, CI ≦0.3 = strong synergy
Experimental: FIG. 10—Combination of ATP-competitive pan-PAK inhibitor PF-3758309 (B. W. Murray et al. Proc. Nat. Acad. Sci. USA 2010 107(20):9446-9471 and IAP small molecule antagonist results in apoptosis of squamous NSCLC cells. (A) Catalytic inhibition of PAK1 via PF-3758309 treatment was tested with BV6 for in vitro combination efficacy in EBC-1 cells using a 4-day CellTiterGlo viability assay. Calcusyn, a program utilizing the Chou and Talalay (Chou T C, Talalay P. Quantitative analysis of dose-effect relationships: the combined effects of multiple drugs or enzyme inhibitors. Adv. Enzyme Regul. 1984; 22:27-55) method of calculating synergy, was used to calculate the combination index and, thus, determine the level of synergy. Strong synergy, as indicated by combination index (CI) values ≦0.3, was observed (CI=0.113).
A determination of a synergistic interaction between a PAK1 inhibitor and a second anti-hyperproliferative agent may be based on the results obtained from the assays described herein. The combinations provided by this invention have been evaluated in several assay systems, and the data can be analyzed utilizing a standard program for quantifying synergism, additivism, and antagonism among anticancer agents. The program preferably utilized is that described by Chou and Talalay, in “New Avenues in Developmental Cancer Chemotherapy,” Academic Press, 1987, Chapter 2. […]

[3] = system: Cells transfected with XIAP-specific siRNA; assay: Cell Titer Glo viability after XIAP siRNA and PAK SMI; assay type: cell-based; details: XIAP siRNA 48 h, then PAK SMI 72 h; p<0.0001
Experimental: Cells were transfected with non-targeting control (NTC) or XIAP-specific siRNA oligonucleotides for 48 h prior to treatment with DMSO or PAK SMI as indicated for an additional 72 h. Cell viability was determined via Cell Titer Glo assay and results represent mean±standard deviation from three experiments. (B) Combined antagonism of XIAP and PAK1 promotes efficient cleavage of PARP and caspase-3. XIAP siRNA oligonucleotides were transfected for 72 h prior to treatment with DMSO or […] PAK SMI.

EBC-1 cells [4] = assay: cell killing by pharmacological PAK or Rac1 inhibitors combined with IAP inhibition; assay type: cell-based, human; details: pharmacological inhibitors of PAK or Rac1 catalytic activity; FIG. 7A
Excerpt: The prosurvival activity of IAP proteins is antagonized by the second mitochondrial activator of caspases (SMAC) (C. Du et al., Cell 2000 102:33-42; A. M. Verhagen, et al. Cell 2000 102:43-53) and a number of antagonists have been described that mimic SMAC amino-terminal peptides to disrupt the association of IAP with SMAC and activated caspase-9 (K. Zobel et al., ACS Chem. Biol. 2006 1:525-533; E. Varfolomeev et al., Cell 2007 131:669-681). In particular, BV6 (C. Ndubaku et al., Future Med. Chem. 2009 1(8):1509) represents one such class of small molecule antagonist that binds to baculovirus TAP repeat (BIR) domains and promotes rapid auto-ubiquitination and proteasomal degradation of c-TAP 1 and cIAP-2 (Zobel supra). Consistent with the small molecule screening data, strong combinatorial activity was confirmed for dual inhibition of PAK1 and IAP in EBC-1 cells (FIG. 5A). […] To further explore this apparent synergy we investigated possible molecular mechanisms of PAK1 and IAP inhibition on the induction of apoptosis. […] Lastly, additional NSCLC cell lines, including those that are only minimally responsive to the activity of either single agent, were examined for anti-tumor efficacy resulting from combined inhibition of PAK1 and IAP.

MDA-MB-175 cells = assay: Annexin V/PI fluorescence-activated cell sorting after IPA-3 for 48 h; assay type: cell-based, human
Excerpt: FIG. 1-Analysis of PAK1 genomic amplification and functional role in human breast tumors. (A) Genomic Identification of Significant Targets in Cancer (GISTIC) analysis of 11q13 copy number gains. Points are proportionately spaced and arranged in genome order. Vertical line represents chromosome location of the PAK1 gene. […] (B) PAK1 DNA copy and mRNA expression dot plot depicts the relationship of DNA copy number to the 226507 at Affymetrix MAS 5.0 signal for 51 tumor samples. The Pearson correlation statistic (0.75) is shown for the plot. The solid line represents the best-fit line through these points. (C) Increasing proportion of Annexin V-positive cells following knockdown of PAK1 expression is shown for 3 breast cancer cell lines with focal PAK1 genomic amplification, MDA-MB-175, HCC1500 and MDA-MB-134 IV. Cells were harvested 3-5 days following transient transfection of pooled siRNA oligonucleotides. (D) Fluorescence-activated cell sorting analysis for Annexin V/PI. MDA-MB-175 cells were cultured in the presence or absence of IPA-3 for 48 h. Annexin V/PI staining was then done to assess apoptosis/necrosis. […]
To ascertain the role of PAK1 in cell survival, the quantity of cytoplasmic histone-associated DNA fragments was quantified using the Cell Death Detection ELISA Plus kit from Roche (Mannheim, Germany). […]

NCI-H441 = assay: Cell Titer Glo viability after PAK1 siRNA and BV6; assay type: cell-based, human; details: transient PAK1 siRNA followed by 5 μM BV6
Experimental: (§1) FIG. 7—(A) Combinatorial accumulation of cleaved PARP and caspase-3 by PAK1 and IAP antagonism. Cells were incubated with Dox and […] for indicated time points, lysed and then used for Western blot analysis (B) Dual PAK1 and IAP inhibition results in a synergistic decrease in viability of SK-MES-1 (squamous subtype) and NCI-H441 (adenocarcinoma subtype) NSCLC cells. Cellular ATP consumption was determined via Cell Titer Glo assay following transient siRNA-mediated inhibition of PAK1 and 5 μM BV6 treatment as indicated.
(§2) The prosurvival activity of IAP proteins is antagonized by the second mitochondrial activator of caspases (SMAC) (C. Du et al., Cell 2000 102:33-42; A. M. Verhagen, et al. Cell 2000 102:43-53) and a number of antagonists have been described that mimic SMAC amino-terminal peptides to disrupt the association of IAP with SMAC and activated caspase-9 (K. Zobel et al., ACS Chem. Biol. 2006 1:525-533; E. Varfolomeev et al., Cell 2007 131:669-681). In particular, BV6 (C. Ndubaku et al., Future Med. Chem. 2009 1(8):1509) represents one such class of small molecule antagonist that binds to baculovirus TAP repeat (BIR) domains and promotes rapid auto-ubiquitination and proteasomal degradation of c-TAP 1 and cIAP-2 (Zobel supra). […]

SK-MES-1 = assay: Cell Titer Glo viability after PAK1 siRNA and BV6; assay type: cell-based, human; details: transient PAK1 siRNA followed by 5 μM BV6
Experimental: as §1, §2

[5] = single agent vs combination with PAK1 knockdown
[6] = EBC-1-shPAK1 cells without PAK1 knockdown, 72 hr compound treatment, read-out: Single agent EC50
[7] = PAK1 knockdown shRNA (300 ng/mL doxycycline 3 days prior) and compound, 72 hr, read-out: Combo PAKi EC50
[8] = 72 h, read-out: Single agent EC50

SMILES: CS(=O)(=O)N1CCN(Cc2cc3nc(-c4cccc5[nH]ncc45)nc(N4CCOCC4)c3s2)CC1 [GDC-0941]
- combinatorial efficacy, reduced cellular viability [1]: Combinatorial efficacy

SMILES: O=c1[nH]c2ccccc2n1C1CCN(Cc2ccc(-c3nc4cc5[nH]cnc5cc4nc3-c3ccccc3)cc2)CC1 [Akt inhibitor VIII]
- Fold change in EC50 (EBC1-shPAK1 cells; [5]): 1.58

SMILES: Cc1nc(Nc2n[nH]c3c2CN(C(=O)N[C@H](CN(C)C)c2ccccc2)C3(C)C)c2sccc2n1 [PF-3758309]
- combination index (CI) (EBC-1 cells [2]): 0.113
- proapoptotic activity with XIAP down-regulation [3]: potentiates the proapoptotic activity
- cell killing combined with IAP inhibition (EBC-1 cells [4]): enhanced cell killing

SMILES: CN(C)c1nc(N(C)C)nc(N(C)C)n1 [altretamine]
- EC50 (EBC1-shPAK1 cells; [6]): ≥ 20 µM
- EC50 (EBC1-shPAK1 cells; [7]): 3.94 µM
- Fold change in EC50 (EBC1-shPAK1 cells; [5]): 5.07

SMILES: COc1cc2c(Nc3ccc(Br)cc3F)ncnc2cc1OCC1CCN(C)CC1 [ZD6474]
- EC50 (EBC1-shPAK1 cells; [6]): ≥ 20 µM
- EC50 (EBC1-shPAK1 cells; [7]): 6.88 µM
- Fold change in EC50 (EBC1-shPAK1 cells; [5]): 2.91

SMILES: CCN(CC)CCCC(C)Nc1nc(C)cc(Nc2ccc3nc(C)cc(N)c3c2)n1 (stereo not drawn) [NSC23766]
- cell killing combined with IAP inhibition (EBC-1 cells [4]): enhanced cell killing

SMILES: O=C1[O][Pt]2([NH][C@@H]3CCCC[C@H]3[NH]2)[O]C1=O [oxaliplatin]
- Fold change in EC50 (EBC1-shPAK1 cells): 4.23

SMILES: Cc1nc(Nc2ncc(C(=O)Nc3c(C)cccc3Cl)s2)cc(N2CCN(CCO)CC2)n1 [dasatinib]
- EC50 (EBC1-shPAK1 cells; [6]): 8.29 µM
- EC50 (EBC1-shPAK1 cells; [7]): 1.53 µM
- Fold change in EC50 (EBC1-shPAK1 cells; [5]): 5.43

SMILES: Oc1ccc2ccccc2c1SSc1c(O)ccc2ccccc12 [IPA-3]
- induction of apoptosis, fold increase (Annexin-V/propidium iodide) (MDA-MB-175 cells): 7 fold
- cell killing combined with IAP inhibition (EBC-1 cells [4]): enhanced cell killing

SMILES: N#CC(=C(/N)Sc1ccccc1N)/C(C#N)=C(\N)Sc1ccccc1N [U0126]
- Fold change in EC50 (EBC1-shPAK1 cells): 8.45
- EC50 (EBC1-shPAK1 cells; [8]): 19.5 µM
- EC50 (EBC1-shPAK1 cells; read-out: Combo PAKi EC50): 2.3 µM

SMILES: C#Cc1cccc(Nc2ncnc3cc(OCCOC)c(OCCOC)cc23)c1 [erlotinib]
- Fold change in EC50 (EBC1-shPAK1 cells): 15.02
- EC50 (EBC1-shPAK1 cells; [8]): ≥ 20 µM
- EC50 (EBC1-shPAK1 cells; read-out: Combo PAKi EC50): 1.56 µM

SMILES: CN[C@@H](C)C(=O)N[C@H](C(=O)N1CCC[C@H]1C(=O)N[C@H](C(=O)NCCCCCCNC(=O)[C@@H](NC(=O)[C@@H]1CCCN1C(=O)[C@@H](NC(=O)[C@H](C)NC)C1CCCCC1)C(c1ccccc1)c1ccccc1)C(c1ccccc1)c1ccccc1)C1CCCCC1 [BV6] (I: H-[NMeA][Chg]P[Dip] / II: H-[NMeA][Chg]P[Dip]; linker I:C-II:C via Hexamethylenediamine)
- Fold change in EC50 (EBC1-shPAK1 cells; [5]): 57.54
- cell viability (NCI-H441): significant reduction
- cell viability (SK-MES-1): significant reduction

SMILES: CS(=O)(=O)CCNCc1ccc(-c2ccc3ncnc(Nc4ccc(OCc5cccc(F)c5)c(Cl)c4)c3c2)o1 [lapatinib]
- EC50 (EBC1-shPAK1 cells; [6]): 6.31 µM
- EC50 (EBC1-shPAK1 cells; [7]): 0.86 µM
- Fold change in EC50 (EBC1-shPAK1 cells; [5]): 7.34
